From patent US20040147606A1, “Medicinal compositions” (priority 2001, published 2004)

Legend:
goblet cells = assay: Test for confirming synergetic expectorant effect: number of goblet cells in the air tube after intratracheal LPS; assay type: in vivo, Fischer (F334) rats; settings: for Number of goblet cells: counted three days after LPS; for expectorant effect (number of goblet cells), result in words: summary of Table 1
Text: Improvement of the expectorant effect by using fudosteine and an antipyretic/analgesic in combination was confirmed by the method described below. Seven 12-week-old male Fischer ([…]) rats for one group were used as test animals. The rats were anesthetized with pentobarbital and their skin was disinfected using the Isodine solution for surgery. The trachea of the rats was exposed by midline incision. The injection needle ([…], Hamilton) attached to a Hamilton injection syringe was inserted from the pharynx to inject lipopolysaccharide (LPS, 10 μg/500 μl) into the air tube. The samples of which the components and dose are shown in Table 1 were dissolved or suspended in a 0.5% CMC-Na solution. The solution or suspension was orally administered to the rats three times in total, specifically, 30 minutes before administering LPS, 24 hours after administering LPS, and 48 hours after administering LPS. Three days after administering LPS, the rats were bled to death by cutting the abdominal aorta under pentobarbital anesthesia. A part of the air tube and bronchial tube was removed and fixed with a 10% neutral buffered formalin solution. The fixed bronchial tube was embedded in paraffin according to a conventional method. The air tube was cut into slices in the cross-section. The slices were stained with alcian blue/PAS (AB/PAS). The AB/PAS stained samples of each air tube were microscopically examined to measure the number of goblet cells according to the reported procedure (Enviromn. Tixicol. Pharmacol., vol. 5, p. 173, 1998).

Wistar rats = assay: Test for confirming synergetic antiinflammatory effect: carrageenan footpad edema; assay type: in vivo; settings: for Edema ratio (%): four hours after carrageenan; for antiinflammatory effect, result in words: summary of Table 2
Method: Improvement on the antiinflammatory effect by using fudosteine and an antipyretic/analgesic in combination was confirmed by the method described below. Five five-week-old male Wistar rats for one group were used as test animals. The samples of which the components and dose are shown in Table 2 were dissolved or suspended in a 0.5% CMC-Na solution. The solution or suspension was orally administered to the rats once a day in five consecutive days. Two hours after the administration on the last administration day, 0.1 ml of an inflammatory (carrageenan) was hypodermically injected into the right hind footpad of the rats. The limb volume of the rats was measured four hours after injecting the inflammatory. The edema ratio was calculated based on the limb volume before injecting the inflammatory. The rats were coated with a licking prevention hood, followed by measuring the right hind limb volume using a plethysmometer (manufactured by Ugo Basile).

[1] = 100 mg/kg orally once a day for five days

For `N[C@@H](CSCCCO)C(=O)O` [Fudosteine, S-(3-hydroxypropyl)-L-cysteine], the “Number of goblet cells” value (goblet cells; 30 mg/kg orally, three times (30 min before, 24 h and 48 h after LPS)) was 75.7 ± 1.3 and the “expectorant effect (number of goblet cells), result in words” value (shortened to “expectorant effect”) (goblet cells) was “exhibited an expectorant effect”.
With `CC(=O)Nc1ccc(O)cc1` [Acetaminophen, acetaminophen] the “Edema ratio (%)” value (Wistar rats; [1]) was 70.6 ± 0.68 %, the “Edema ratio (%)” value (Wistar rats; 200 mg/kg orally once a day for five days) was 60.6 ± 0.88 ^b) % and the “antiinflammatory effect, result in words” value (Wistar rats) was “dose-dependent antiinflammatory effect”. For the same compound, the “Number of goblet cells” value (goblet cells; 100 mg/kg orally, three times) was 125.7 ± 2.4, the “Number of goblet cells” value (goblet cells; 200 mg/kg orally, three times) was 122.9 ± 1.7 and the “expectorant effect” value (goblet cells) was “did not exhibit an expectorant effect”.
With `CC(C)Cc1ccc(C(C)C(=O)O)cc1` (centres unmarked) [Ibuprofen, ibuprofen] the “Edema ratio (%)” value (Wistar rats; 50 mg/kg orally once a day for five days) was 70.6 ± 0.89 %, the “Edema ratio (%)” value (Wistar rats; [1]) was 60.6 ± 0.79 ^a) % and the “antiinflammatory effect, result in words” value (Wistar rats) was “dose-dependent antiinflammatory effect”. The “Number of goblet cells” value (goblet cells; 50 mg/kg orally, three times) was 124.9 ± 1.8, the “Number of goblet cells” value (goblet cells; 100 mg/kg orally, three times) was 124.3 ± 2.0 and the “expectorant effect” value (goblet cells) was “did not exhibit an expectorant effect”.
